Assay results published in patent US8551976B2, “Prochelators for inhibiting metal-promoted oxidative stress” (Duke University, priority 2011, dated 2013).

Test: Hydrogen Peroxide Oxidation (LC-MS analysis of prochelator conversion)
Assay type: physicochemical
Details: 2 mM B-HAPI in water/DMSO, addition of 50 μl concentrated (30%) H2O2, room temperature, 1 h, data not shown
Experimental: Hydrogen Peroxide Oxidation. A 40 mM stock solution of B-HAPI in DMSO was prepared. The reaction mixture (2 mM B-HAPI) was prepared by mixing […] of the B-HAPI stock solution with 450 μl of water and 450 μl of DMSO. The reaction was initiated by addition of 50 μl of concentrated (30%) H2O2 solution. The reaction mixture was incubated at room temperature for 1 h and analyzed by LC-MS.

C/C(=N\NC(=O)c1ccncc1)c1ccccc1OCc1ccc(B2OC(C)(C)C(C)(C)O2)cc1 [B-HAPI, N′-(1-(2-(4-(4,4,5,5-tetramethyl-1,3,2-dioxaborolan-2-yl)benzyloxy)phenyl)ethylidene)isonitotinohdrazide]
Hydrogen peroxide oxidation: products formed (LC-MS): Formation of the chelator (HAPI) and the intermediate of the self-immolative deprotection reaction was observed
